According to patent publication US4892876A, “Method for inhibiting HIV and an pharmaceutical composition therefor” (Nippon Kayaku Kabushiki Kaisha, priority 1987, dated 1990):

Legend:
mice = assay: Toxicity after 1 intraperitoneal administration in mice; type: in vivo; conditions: 1 administration of 800 mg/kg
[1] = Toxicity, general statement including repetitive administration; type: in vivo
[2] = tested on: HIV (Human Immunodeficiency Virus); assay: Development of virus antigen in HIV-infected MT-4 cells (fluorescent antibody technique); type: cell-based
[3] = tested on: HIV (Human Immunodeficiency Virus); assay: Inhibition of HIV cytopathic effect in MT-4 cells (microscopic observation); type: cell-based
Protocol: About 50,000 cells/ml of MT-4 cell was introduced into a tray having 24 holes. Further, 100 ul of a solution containing a predetermined quantity of oxcetanocin was added, and then it was cultured in a 5% (v/v) carbon dioxide gas incubator at 37° C. for 2 hours. Subsequently, 10^3 to 1.0^4 infective units of HIV were added and cultured for 5 days. Then, the inhibition of cytopathic effect was observed microscopically.

MT-4 cell = assay: Cytotoxic effect on MT-4 cell without virus; type: cell-based; conditions: at concentration of 30 ug/ml
Protocol: About 50,000 cells/ml of MT-4 cell was introduced into a tray having 24 holes. Further, 100 ul of a solution containing a predetermined quantity of oxcetanocin was added, and then it was cultured in a 5% (v/v) carbon dioxide gas incubator at 37° C. for 2 hours. Subsequently, 10^3 to 1.0^4 infective units of HIV were added and cultured for 5 days. Then, the inhibition of cytopathic effect was observed microscopically. Cytotoxic effect of oxcetanocin on MT-4 cell was examined without adding virus according to the above technique.

**Q.** Which Toxic sign (mice) does the source give for `Nc1ncnc2c1ncn2C1OC(CO)C1CO` (centres unmarked) [Oxcetanocin, oxcetanocin] here?
**A.** Any toxic sign has not been observed

**Q.** What about the Toxicity [1] of the same compound?
**A.** slightly toxic

**Q.** And the “Development of virus antigens (in words)” value [2]?
**A.** very suppressive to development of virus antigens

**Q.** What about the “Inhibition of cytopathic effect (in words)” value [3] of the same compound?
**A.** predominantly inhibitory to cytopathic effect

**Q.** And the “Cytotoxicity (in words)” value (MT-4 cell)?
**A.** not cytotoxic
